Columns and labels:
[1] = target: T1, Recombinant STAT6 protein (STAT6 (W123-T658)) (Homo sapiens, UniProt P42226); assay: STAT6 Fluorescence Polarization (FP) Assay; assay type: binding; conditions: STAT6 250 nM, probe 5-FAM-Ap[…]-NH2 2 nM, 45-minute incubation; read-out: STAT6 (FP assay IC50)
T1 construct: Recombinant STAT6 protein (STAT6 (W123-T658))
T1 sequence (P42226 123-658): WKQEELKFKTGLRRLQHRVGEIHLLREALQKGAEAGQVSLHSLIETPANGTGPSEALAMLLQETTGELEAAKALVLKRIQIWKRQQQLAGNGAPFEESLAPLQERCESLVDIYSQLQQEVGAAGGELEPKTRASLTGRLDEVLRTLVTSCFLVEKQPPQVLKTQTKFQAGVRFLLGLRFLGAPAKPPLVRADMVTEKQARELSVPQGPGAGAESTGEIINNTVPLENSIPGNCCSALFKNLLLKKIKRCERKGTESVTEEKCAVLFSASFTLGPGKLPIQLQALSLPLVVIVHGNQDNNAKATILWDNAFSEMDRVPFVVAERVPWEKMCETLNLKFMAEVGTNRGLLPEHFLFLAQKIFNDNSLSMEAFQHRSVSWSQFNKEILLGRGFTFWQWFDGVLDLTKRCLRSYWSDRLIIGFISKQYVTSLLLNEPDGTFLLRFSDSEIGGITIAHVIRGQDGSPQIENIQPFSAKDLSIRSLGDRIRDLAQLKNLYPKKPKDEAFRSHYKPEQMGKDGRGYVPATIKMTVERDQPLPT
Summary of the method: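 Probe displacement format: serially diluted compounds incubated 45 min at room temperature with 2 nM fluorescent phosphopeptide and 250 nM STAT6 (W123-T658) in pH 7.4 HEPES buffer, 1% DMSO final. Polarization signal plotted against log concentration, IC50 fitted by nonlinear regression.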

[2] = target: T2, Recombinant STAT3 protein (STAT3 (G127-I722)) (Homo sapiens, UniProt P40763); assay: STAT3 Fluorescence Polarization (FP) Assay; assay type: binding; conditions: STAT3 25 nM, probe 5-FAM-GpYLPQTV-NH2 2 nM, 45-minute incubation; read-out: STAT3 (FP assay IC50)
T2 construct: Recombinant STAT3 protein (STAT3 (G127-I722))
Summary of the method: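 Compounds in serial dilution receive a premix of STAT3 (G127-I722, 25 nM) and fluorescent phosphotyrosine peptide 5-FAM-GpYLPQTV-NH2 (2 nM) at pH 7.4. After 45 min at room temperature, FP is measured and IC50 derived by nonlinear regression.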

T2 sequence (P40763 127-722): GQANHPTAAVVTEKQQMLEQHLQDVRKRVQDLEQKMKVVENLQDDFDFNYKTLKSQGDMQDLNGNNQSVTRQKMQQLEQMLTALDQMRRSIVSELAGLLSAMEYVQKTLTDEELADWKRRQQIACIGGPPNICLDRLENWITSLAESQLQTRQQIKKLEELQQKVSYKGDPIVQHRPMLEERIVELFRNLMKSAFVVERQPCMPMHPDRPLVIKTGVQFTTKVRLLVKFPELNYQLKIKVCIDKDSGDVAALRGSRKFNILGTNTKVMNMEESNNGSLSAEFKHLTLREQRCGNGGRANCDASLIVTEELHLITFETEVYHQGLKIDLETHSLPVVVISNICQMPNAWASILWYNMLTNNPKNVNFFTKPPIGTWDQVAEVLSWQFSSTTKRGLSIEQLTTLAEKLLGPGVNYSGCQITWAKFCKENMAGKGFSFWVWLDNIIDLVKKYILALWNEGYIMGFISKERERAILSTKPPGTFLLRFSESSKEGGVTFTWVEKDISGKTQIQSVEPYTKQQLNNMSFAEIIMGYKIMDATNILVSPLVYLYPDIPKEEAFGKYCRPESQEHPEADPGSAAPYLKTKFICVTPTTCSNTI

| IC50 [1] | IC50 [2] | Compound |
| --- | --- | --- |
| 3 to 30 µM | < 0.1 µM | C[C@]1(NC(=O)c2cc3cc(C(F)(F)P(=O)(O)O)ccc3s2)CCCC[C@H]2CC[C@@H](C(=O)N3CC(c4ccccn4)C3)N2C1=O [Compound 85, (difluoro(2-(((3S,6S,10aS)-6-methyl-5-oxo-3-(3-(pyridin-2-yl)azetidine-1-carbonyl)decahydropyrrolo [1,2-a]azocin-6-yl)carbamoyl)benzo[b]thiophen-5-yl)methyl) phosphonic acid] |
| 0.3 to 3 µM | 0.1 to 1 µM | CN(C)S(=O)(=O)N1CCN(C(=O)[C@@H]2CC[C@@H]3CCCC[C@H](NC(=O)c4cc5cc(C(F)(F)P(=O)(O)O)ccc5s4)C(=O)N32)CC1 [Compound 87, ((2-(((3S,6S,10aS)-3-(4-(N,N-dimethylsulfamoyl)piperazine-1-carbonyl)-5-oxodecahydropyrrolo [1,2-a]azocin-6-yl)carbamoyl)benzo[b]thiophen-5-yl)difluoromethyl) phosphonic acid] |
| ≤ 0.3 µM | 1 to 10 µM | O=C(NC1CCCC[C@H]2CC[C@@H](C(=O)N3CC(c4ccccc4)CC34CC4)N2C1=O)c1cc2cc(C(F)(F)P(=O)(O)O)ccc2s1 (stereo partly drawn) [Compound 89, (difluoro(2-(((3S,10aS)-5-oxo-3-(6-phenyl-4-azaspiro[2.4]heptane-4-carbonyl)decahydropyrrolo [1,2-a]azocin-6-yl)carbamoyl)benzo[b]thiophen-5-yl)methyl) phosphonic acid] |
| 3 to 30 µM | 0.1 to 1 µM | O=C(N[C@H]1CCCC[C@H]2CC[C@@H](C(=O)N3CC(C(=O)N4CCOCC4)C3)N2C1=O)c1cc2cc(C(F)(F)P(=O)(O)O)ccc2s1 [Compound 93, (difluoro(2-(((3S,6S,10aS)-3-(3-(morpholine-4-carbonyl)azetidine-1-carbonyl)-5-oxodecahydropyrrolo [1,2-a]azocin-6-yl)carbamoyl)benzo[b]thiophen-5-yl)methyl) phosphonic acid] |
| 3 to 30 µM | 0.1 to 1 µM | O=C(N[C@H]1CCC[C@H]2CC[C@@H](C(=O)N3CC(C(=O)N4CCOCC4)C3)N2C1=O)c1cc2cc(C(F)(F)P(=O)(O)O)ccc2s1 [Compound 94, (difluoro(2-(((3S,6S,9aS)-3-(3-(morpholine-4-carbonyl)azetidine-1-carbonyl)-5-oxooctahydro-1H-pyrrolo[1,2-a]azepin-6-yl)carbamoyl)benzo[b]thiophen-5-yl)methyl) phosphonic acid] |
| 0.3 to 3 µM | 0.1 to 1 µM | O=C(N[C@H]1C=CC[C@H]2CC[C@@H](C(=O)Nc3ccc(-c4ccccc4)cc3)N2C1=O)c1cc2cc(C(F)(F)P(=O)(O)O)ccc2s1 [Compound 97, ((2-(((3S,6S,9aR)-3-([1,1′-biphenyl]-4-ylcarbamoyl)-5-oxo-2,3,5,6,9,9a-hexahydro-1H-pyrrolo[1,2-a]azepin-6-yl)carbamoyl)benzo[b]thiophen-5-yl)difluoromethyl) phosphonic acid] |
| 3 to 30 µM | 0.1 to 1 µM | O=C(N[C@H]1CCCC[C@H]2CC[C@@H](C(=O)NC(CO)Cc3ccccc3)N2C1=O)c1cc2cc(C(F)(F)P(=O)(O)O)ccc2s1 (stereo partly drawn) [Compound 98, (difluoro(2-(((3S,6S,10aS)-3-((1-hydroxy-3-phenylpropan-2-yl)carbamoyl)-5-oxodecahydropyrrolo [1,2-a]azocin-6-yl)carbamoyl)benzo[b]thiophen-5-yl)methyl) phosphonic acid] |
| ≤ 0.3 µM | 1 to 10 µM | C[C@@H]1C[C@H](NC(=O)c2cc3cc(C(F)(F)P(=O)(O)O)ccc3s2)C(=O)N2[C@H](CC[C@H]2C(=O)N2CC[C@@H](c3ccccc3)C2)C[C@H]1O [Compound 100, (difluoro(2-(((3S,6S,8R,9R, 10aR)-9-hydroxy-8-methyl-5-oxo-3-((S)-3-phenylpyrrolidine-1-carbonyl)decahydropyrrolo [1,2-a]azocin-6-yl)carbamoyl)benzo[b]thiophen-5-yl)methyl) phosphonic acid] |
| 3 to 30 µM | < 0.1 µM | CC1CCC[C@H](NC(=O)c2cc3cc(C(F)(F)P(=O)(O)O)ccc3s2)C(=O)N2[C@@H]1CC[C@H]2C(=O)N1CC(c2cccnc2)C1 (stereo partly drawn) [Compound 103, (difluoro(2-(((3S,6S,10aR)-10-methyl-5-oxo-3-(3-(pyridin-3-yl)azetidine-1-carbonyl)decahydropyrrolo [1,2-a]azocin-6-yl)carbamoyl)benzo[b]thiophen-5-yl)methyl) phosphonic acid] |
| 0.3 to 3 µM | < 0.1 µM | O=C(N[C@H]1CCC[C@H]2CC[C@@H](C(=O)N3CC(c4ccccn4)C3)N2C1=O)c1cc2cc(C(F)(F)P(=O)(O)O)ccc2s1 [Compound 108, (difluoro(2-(((3S,6S,9aS)-5-oxo-3-(3-(pyridin-2-yl)azetidine-1-carbonyl)octahydro-1H-pyrrolo[1,2-a]azepin-6-yl)carbamoyl)benzo[b]thiophen-5-yl)methyl) phosphonic acid] |
| 0.3 to 3 µM | 1 to 10 µM | CN(C(=O)[C@@H]1CC[C@@H]2CCC[C@H](NC(=O)c3cc4cc(C(F)(F)P(=O)(O)O)ccc4s3)C(=O)N21)c1ccccc1 [Compound 111, (Difluoro(2-(((3S,6S,9aS)-3-(methyl(phenyl)carbamoyl)-5-oxooctahydro-1H-pyrrolo[1,2-a]azepin-6-yl)carbamoyl)benzo[b]thiophen-5-yl)methyl)phosphonic acid] |
| 3 to 30 µM | 0.1 to 1 µM | O=C(N[C@H]1CCCC[C@H]2CC[C@@H](C(=O)N3CC(N4CCOCC4)C3)N2C1=O)c1cc2cc(C(F)(F)P(=O)(O)O)ccc2s1 [Compound 113, (difluoro(2-(((3S,6S, 10aS)-3-(3-morpho-linoazetidine-1-carbonyl)-5-oxodecahydropyrrolo[1,2-a]azocin-6-yl)carbamoyl)benzo[b]thiophen-5-yl)methyl)ph osphonic acid] |
| 3 to 30 µM | < 0.1 µM | O=C(N[C@H]1CCC2(CC2)C[C@H]2CC[C@@H](C(=O)N3CC(C(=O)N4CCOCC4)C3)N2C1=O)c1cc2cc(C(F)(F)P(=O)(O)O)ccc2s1 [Compound 114, (difluoro(2-(((3′S,6′S, 10aR)-3′-(3-(morpholine-4-carbonyl)azetidine-1-carbonyl)-5′-oxooctahydro-1′H-spiro [cyclopropane-1,9′-pyrrolo[1,2-a]azocin]-6′-yl)carbamoyl)benzo[b]thiophen-5-yl)methyl) phosphonic acid] |
| 3 to 30 µM | < 0.1 µM | O=C(N[C@H]1CC2(CC[C@H]3CC[C@@H](C(=O)N4CC(C(=O)N5CCOCC5)C4)N3C1=O)CC2)c1cc2cc(C(F)(F)P(=O)(O)O)ccc2s1 [Compound 115, (difluoro(2-(((3′S,6′S, 10a′S)-3′-(3-(morpholine-4-carbonyl)azetidine-1-carbonyl)-5′-oxooctahydro-5′H-spiro [cyclopropane-1,8′-pyrrolo[1,2-a]azocin]-6′-yl)carbamoyl)benzo[b]thiophen-5-yl)methyl) phosphonic acid] |
| 0.3 to 3 µM | 0.1 to 1 µM | CC(=O)N1C[C@H](NC(=O)[C@@H]2CC[C@@H]3CCCC[C@H](NC(=O)c4cc5cc(C(F)(F)P(=O)(O)O)ccc5s4)C(=O)N32)[C@@H](O)C1 [Compound 116, ((2-(((3S, 6S,10aS)-3-(((3S,4S)-1-acetyl-4-hydroxypyrrolidin-3-yl)carbamoyl)-5-oxodecahydro-pyrrolo [1,2-a]azocin-6-yl)carbamoyl)benzo[b]thiophen-5-yl)difluoromethyl) phosphonic acid] |
| 3 to 30 µM | < 0.1 µM | O=C(N[C@H]1CCCC[C@H]2CC[C@@H](C(=O)N3CC(c4cccnc4)C3)N2C1=O)c1cc2cc(C(F)(F)P(=O)(O)O)ccc2s1 [Compound 117, (difluoro(2-(((3S,6S,10aS)-5-oxo-3-(3-(pyridin-3-yl)azetidine-1-carbonyl)decahydropyrrolo [1,2-a]azocin-6-yl)carbamoyl)benzo[b]thiophen-5-yl)methyl) phosphonic acid] |
| 3 to 30 µM | 0.1 to 1 µM | O=C(N[C@H]1CCCC[C@H]2CC[C@@H](C(=O)N3CC(C4CCOCC4)C3)N2C1=O)c1cc2cc(C(F)(F)P(=O)(O)O)ccc2s1 [Compound 118A, (difluoro(2-(((3S,6S,10a S)-5-oxo-3-(3-(tetrahydro-2H-pyran-4-yl)azetidine-1-carbonyl)decahydropyrrolo-[1,2a]azocin-6-yl)carbamoyl)benzo[b]thiophen-5-yl)methyl) phosphonic acid] |

From patent publication US20250215029A1 (Recludix Pharma, Inc., priority 2022, published 2025)
